{"source": "patent US20130216614A1", "about": "“IMMUNOGENIC COMPOSITIONS AND METHODS FOR TREATING NUEROLOGIC DISORDERS” (Glaxosmithkline Biologicals S.A., priority 2010, published 2013)", "tested_on": "peripheral blood monocytes", "assay": "Ex vivo uptake of fluorescent Aβ42 by peripheral blood monocytes from adjuvanted mice", "assay_type": "in vivo, C57BL/6 mice", "settings": "24 hrs after i.m. injection, FIG. 21; QS21 5 μg", "source_text": "To begin to examine the function of the increase of monocytes in the peripheral blood, we examined the capacity of those monocytes to uptake Aβ42 in a test tube. In order to measure that phagocytic activity, we have used fluorescent HiLyteFluo Aβ42 (Anaspec Inc).\nWe examined the capacity of monocytes to uptake Aβ42 in a test tube. In order to measure that phagocytic activity we have used fluorescent HiLyteFluo Aβ42 (Anaspec Inc).\nPreparation of cells: Peripheral blood was drawn from C57BL/6 mice via cardiac puncture with lithium-heparin as anticoagulant, 24-Hour after injection of the adjuvants used herein. Red blood cell lysis was performed twice on pooled blood with Ammonium Chloride-based Buffer (Sigma, Steinheim, Germany) and cells were counted with the EasyCount™ System (Immunicon). […]\nSamples were acquired on a flow cytometer (BD FACSCanto II) and data analyzed with the FACSDiva software (BD Biosciences).\nMonocytes were identified by their Side/Forward scatter properties, excluding debris and gated as CD3-/CD45R/B220-/Ly-6G-/NK1.1-(Lineage-)/CD11b+ cells. Aβ uptake was assessed by reporting the percentage and Mean Fluorescence Intensity (GeoMean) of positive HiLyte fluor488 Aβ1-42 cells among gated monocytes.", "data": [{"substance": "QS21 [reference compound]", "values": [{"measurement": "ex vivo Aβ uptake by mouse peripheral blood monocytes", "value": "does not promote"}]}]}
